Test [1] concerns Leucine-rich repeat serine/threonine-protein kinase 2 (Homo sapiens), Q5S007 [G2019S]. The settings on record: Compound concentration 1000.0 nM.
Test [2] has as its target Mu-type opioid receptor (Homo sapiens) (UniProt P35372). The settings on record: Compound concentration 10.0 uM.
The species entered for test [3] is Rattus norvegicus. Put plainly: Inhibition of Glutamate, NMDA, Phencyclidine at 10 µM in the Eurofins-Panlabs radioligand binding assay (Eurofins_assay_233000). The class given is protein-complex assay. The settings on record: Compound concentration 10.0 uM.
In test [4] the target is Cholecystokinin receptor type A (Homo sapiens) (UniProt P32238). Description: Inhibition of Cholecystokinin CCK1 (CCKA) at 10 µM in the Eurofins-Panlabs radioligand binding assay (Eurofins_assay_218020). Conditions: Compound concentration 10.0 uM.
The subject of test [5] is Tyrosine-protein kinase ABL1 (Homo sapiens), P00519 [Y253F]. Description: ABL1 Y253F Kinase screen. Conditions: Compound concentration 1.0 uM.
Test [6] concerns the target Tyrosine-protein kinase ABL2 (Homo sapiens) (UniProt P42684). Put plainly: ABL2 (Arg) Kinase screen. Conditions: Compound concentration 1.0 uM.
The target of test [7] is RAC-gamma serine/threonine-protein kinase (Homo sapiens) (UniProt Q9Y243). Put plainly: AKT3 (PKB gamma) Kinase screen. The settings on record: Compound concentration 1.0 uM.
In test [8] the target is Dual specificity protein kinase CLK3 (Homo sapiens) (UniProt P49761). Description: CLK3 Kinase screen. Conditions: Compound concentration 1.0 uM.
Test [9] deals with Dual specificity tyrosine-phosphorylation-regulated kinase 3 (Homo sapiens) (UniProt O43781). Put plainly: DYRK3 Kinase screen. The settings on record: Compound concentration 1.0 uM.
Chain of Dual specificity tyrosine-phosphorylation-regulated kinase 3 (Homo sapiens) (O43781 whole entry): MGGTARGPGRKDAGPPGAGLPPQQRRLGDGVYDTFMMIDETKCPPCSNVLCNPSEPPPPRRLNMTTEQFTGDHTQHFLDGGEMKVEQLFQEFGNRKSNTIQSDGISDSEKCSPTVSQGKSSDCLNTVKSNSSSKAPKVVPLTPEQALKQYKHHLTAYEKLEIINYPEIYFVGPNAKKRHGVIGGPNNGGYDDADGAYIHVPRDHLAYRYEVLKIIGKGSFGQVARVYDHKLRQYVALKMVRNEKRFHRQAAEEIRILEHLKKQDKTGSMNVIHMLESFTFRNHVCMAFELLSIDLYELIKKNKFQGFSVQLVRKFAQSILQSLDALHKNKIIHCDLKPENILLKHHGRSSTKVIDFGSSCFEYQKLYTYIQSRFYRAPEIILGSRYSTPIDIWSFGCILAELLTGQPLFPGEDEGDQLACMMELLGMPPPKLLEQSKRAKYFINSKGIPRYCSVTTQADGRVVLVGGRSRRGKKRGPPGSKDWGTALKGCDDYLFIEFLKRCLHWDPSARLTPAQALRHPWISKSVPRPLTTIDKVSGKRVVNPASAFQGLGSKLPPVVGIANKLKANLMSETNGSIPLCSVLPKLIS
Test [10] addresses Ephrin type-A receptor 5 (Homo sapiens) (UniProt P54756). Description: EPHA5 Kinase screen. The settings on record: Compound concentration 1.0 uM.
Test [11] has as its target Tyrosine-protein kinase Fgr (Homo sapiens) (UniProt P09769). Put plainly: FGR Kinase screen. The settings on record: Compound concentration 1.0 uM.
For test [12], the target named is G protein-coupled receptor kinase 6 (Homo sapiens) (UniProt P43250). Description: GRK6 Kinase screen. The settings on record: Compound concentration 1.0 uM.
Test [13] deals with T1, Dual specificity mitogen-activated protein kinase kinase 3 (Homo sapiens) (UniProt P46734).
T1 sequence (whole entry): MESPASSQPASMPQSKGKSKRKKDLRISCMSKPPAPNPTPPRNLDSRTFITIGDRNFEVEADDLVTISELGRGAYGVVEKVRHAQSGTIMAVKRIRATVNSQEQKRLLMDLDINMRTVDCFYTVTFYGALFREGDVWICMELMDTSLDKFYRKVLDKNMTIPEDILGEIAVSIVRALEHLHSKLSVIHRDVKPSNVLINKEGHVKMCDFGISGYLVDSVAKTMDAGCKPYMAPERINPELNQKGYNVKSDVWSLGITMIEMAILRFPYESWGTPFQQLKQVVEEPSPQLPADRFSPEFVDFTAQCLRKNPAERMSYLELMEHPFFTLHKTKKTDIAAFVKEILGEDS
Put plainly: MAP2K3 (MEK3) Kinase screen. The settings on record: Compound concentration 1.0 uM.

Test [14] addresses Serine/threonine-protein kinase Nek4 (Homo sapiens) (UniProt P51957). Put plainly: NEK4 Kinase screen. Conditions: Compound concentration 1.0 uM.
Test [15] concerns the target PAS domain-containing serine/threonine-protein kinase (Homo sapiens) (UniProt Q96RG2). Put plainly: PASK Kinase screen. Conditions: Compound concentration 1.0 uM.
The target in test [16] is Serine/threonine-protein kinase pim-1 (Homo sapiens) (UniProt P11309). Description: PIM1 Kinase screen. Conditions: Compound concentration 1.0 uM.
The target in test [17] is Serine/threonine-protein kinase PLK3 (Homo sapiens) (UniProt Q9H4B4). Description: PLK3 Kinase screen. Conditions: Compound concentration 1.0 uM.
Chain of Serine/threonine-protein kinase PLK3 (Homo sapiens) (Q9H4B4 whole entry, looked up): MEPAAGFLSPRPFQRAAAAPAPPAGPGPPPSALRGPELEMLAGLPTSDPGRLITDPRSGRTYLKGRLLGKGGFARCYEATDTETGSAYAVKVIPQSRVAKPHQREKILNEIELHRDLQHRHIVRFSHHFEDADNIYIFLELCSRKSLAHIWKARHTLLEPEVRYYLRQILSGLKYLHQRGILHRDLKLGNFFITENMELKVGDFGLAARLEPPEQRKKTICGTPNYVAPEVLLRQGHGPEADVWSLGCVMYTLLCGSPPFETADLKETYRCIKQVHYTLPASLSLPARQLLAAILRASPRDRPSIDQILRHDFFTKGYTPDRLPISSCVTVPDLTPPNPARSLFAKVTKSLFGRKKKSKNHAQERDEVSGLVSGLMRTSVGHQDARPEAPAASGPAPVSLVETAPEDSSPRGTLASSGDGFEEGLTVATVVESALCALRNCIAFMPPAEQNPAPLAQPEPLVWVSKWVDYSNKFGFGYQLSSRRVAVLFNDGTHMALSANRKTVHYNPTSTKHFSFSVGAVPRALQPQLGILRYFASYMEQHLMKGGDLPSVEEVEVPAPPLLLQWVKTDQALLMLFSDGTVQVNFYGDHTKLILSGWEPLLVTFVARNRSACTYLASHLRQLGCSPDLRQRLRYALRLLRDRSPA
The target in test [18] is T2, Serine/threonine-protein kinase 17A (Homo sapiens) (UniProt Q9UEE5).
T2 sequence (whole entry): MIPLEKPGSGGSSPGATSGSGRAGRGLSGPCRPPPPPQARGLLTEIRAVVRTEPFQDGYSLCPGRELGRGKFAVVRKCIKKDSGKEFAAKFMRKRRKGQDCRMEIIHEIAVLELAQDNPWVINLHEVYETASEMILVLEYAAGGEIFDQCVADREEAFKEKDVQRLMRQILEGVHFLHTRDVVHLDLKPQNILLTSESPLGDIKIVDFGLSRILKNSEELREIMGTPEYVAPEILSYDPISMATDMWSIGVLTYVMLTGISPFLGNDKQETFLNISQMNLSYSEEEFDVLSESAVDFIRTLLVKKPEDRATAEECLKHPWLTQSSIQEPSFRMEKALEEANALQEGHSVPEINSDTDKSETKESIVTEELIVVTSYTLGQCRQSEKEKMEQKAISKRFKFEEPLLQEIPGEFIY
Put plainly: STK17A (DRAK1) Kinase screen. The settings on record: Compound concentration 1.0 uM.

In test [19] the target is T3, Serine/threonine-protein kinase TBK1 (Homo sapiens) (UniProt Q9UHD2).
T3 sequence (whole entry): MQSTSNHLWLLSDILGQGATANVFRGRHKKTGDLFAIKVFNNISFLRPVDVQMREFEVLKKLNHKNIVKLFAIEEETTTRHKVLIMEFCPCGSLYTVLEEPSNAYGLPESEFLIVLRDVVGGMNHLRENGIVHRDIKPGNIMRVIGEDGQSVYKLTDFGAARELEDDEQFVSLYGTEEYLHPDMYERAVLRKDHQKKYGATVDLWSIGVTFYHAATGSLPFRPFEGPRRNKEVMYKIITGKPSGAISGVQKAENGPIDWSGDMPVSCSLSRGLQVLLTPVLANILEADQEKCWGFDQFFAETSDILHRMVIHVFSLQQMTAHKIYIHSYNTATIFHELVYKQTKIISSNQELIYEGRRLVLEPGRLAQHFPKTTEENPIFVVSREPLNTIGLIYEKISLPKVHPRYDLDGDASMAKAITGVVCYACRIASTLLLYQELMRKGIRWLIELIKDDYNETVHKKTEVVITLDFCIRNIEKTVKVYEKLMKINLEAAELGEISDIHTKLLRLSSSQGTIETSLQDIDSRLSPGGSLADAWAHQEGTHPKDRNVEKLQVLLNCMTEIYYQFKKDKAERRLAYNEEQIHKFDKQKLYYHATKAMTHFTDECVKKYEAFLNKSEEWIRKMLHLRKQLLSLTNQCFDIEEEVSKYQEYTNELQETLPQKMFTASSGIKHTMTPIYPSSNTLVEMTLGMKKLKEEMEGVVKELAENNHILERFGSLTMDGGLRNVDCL
Description: TBK1 Kinase screen. The settings on record: Compound concentration 1.0 uM.

The target of test [20] is Caspase-3 (Homo sapiens) (UniProt P42574). Description: Peptidase, CASP3 (Caspase 3) Eurofins-Panlabs enzyme assay. Conditions: Compound concentration 10.0 uM.
In test [21] the target is Corticotropin-releasing factor receptor 1 (Homo sapiens) (UniProt P34998). Put plainly: Corticotropin Releasing Factor CRF1 Eurofins-Panlabs radioligand binding assay. The settings on record: Compound concentration 10.0 uM.
Chain of Corticotropin-releasing factor receptor 1 (Homo sapiens) (P34998 whole entry): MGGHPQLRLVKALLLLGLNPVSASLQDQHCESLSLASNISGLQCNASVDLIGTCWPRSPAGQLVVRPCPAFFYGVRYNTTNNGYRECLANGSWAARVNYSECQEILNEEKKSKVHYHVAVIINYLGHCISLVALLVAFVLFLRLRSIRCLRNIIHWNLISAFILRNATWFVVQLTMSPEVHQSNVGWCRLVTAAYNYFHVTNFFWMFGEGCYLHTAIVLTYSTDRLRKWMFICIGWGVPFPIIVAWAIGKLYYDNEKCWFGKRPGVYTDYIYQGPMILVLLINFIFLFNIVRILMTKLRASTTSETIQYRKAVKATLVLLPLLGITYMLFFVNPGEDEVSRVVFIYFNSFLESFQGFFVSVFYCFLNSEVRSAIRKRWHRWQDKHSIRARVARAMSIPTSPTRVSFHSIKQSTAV
The target in test [22] is Neurotensin receptor type 1 (Homo sapiens) (UniProt P30989). Put plainly: Neurotensin NT1 Eurofins-Panlabs radioligand binding assay. More on the design: ligand concentration 0.02 nM, non-specific ligand with concentration 1 µM Neurotensin, incubation time 45 min, incubation temperature 25 °C. Conditions: Compound concentration 10.0 uM.
For test [23], the target named is Cannabinoid receptor 1 (Homo sapiens) (UniProt P21554). Conditions: Compound concentration 10.0 uM.
Test [24] has as its target Endothelin-1 receptor (Homo sapiens) (UniProt P25101). The settings on record: Compound concentration 10.0 uM.
Test [25] addresses 3-phosphoinositide-dependent protein kinase 1 (PDPK1) (Homo sapiens) (UniProt O15530). Description: PDK1 Direct Kinase screen. Conditions: Compound concentration 1.0 uM.

Each structure is given as a SMILES string.

Chain of Leucine-rich repeat serine/threonine-protein kinase 2 (Homo sapiens), Q5S007 [G2019S] (Q5S007 whole entry G2019S): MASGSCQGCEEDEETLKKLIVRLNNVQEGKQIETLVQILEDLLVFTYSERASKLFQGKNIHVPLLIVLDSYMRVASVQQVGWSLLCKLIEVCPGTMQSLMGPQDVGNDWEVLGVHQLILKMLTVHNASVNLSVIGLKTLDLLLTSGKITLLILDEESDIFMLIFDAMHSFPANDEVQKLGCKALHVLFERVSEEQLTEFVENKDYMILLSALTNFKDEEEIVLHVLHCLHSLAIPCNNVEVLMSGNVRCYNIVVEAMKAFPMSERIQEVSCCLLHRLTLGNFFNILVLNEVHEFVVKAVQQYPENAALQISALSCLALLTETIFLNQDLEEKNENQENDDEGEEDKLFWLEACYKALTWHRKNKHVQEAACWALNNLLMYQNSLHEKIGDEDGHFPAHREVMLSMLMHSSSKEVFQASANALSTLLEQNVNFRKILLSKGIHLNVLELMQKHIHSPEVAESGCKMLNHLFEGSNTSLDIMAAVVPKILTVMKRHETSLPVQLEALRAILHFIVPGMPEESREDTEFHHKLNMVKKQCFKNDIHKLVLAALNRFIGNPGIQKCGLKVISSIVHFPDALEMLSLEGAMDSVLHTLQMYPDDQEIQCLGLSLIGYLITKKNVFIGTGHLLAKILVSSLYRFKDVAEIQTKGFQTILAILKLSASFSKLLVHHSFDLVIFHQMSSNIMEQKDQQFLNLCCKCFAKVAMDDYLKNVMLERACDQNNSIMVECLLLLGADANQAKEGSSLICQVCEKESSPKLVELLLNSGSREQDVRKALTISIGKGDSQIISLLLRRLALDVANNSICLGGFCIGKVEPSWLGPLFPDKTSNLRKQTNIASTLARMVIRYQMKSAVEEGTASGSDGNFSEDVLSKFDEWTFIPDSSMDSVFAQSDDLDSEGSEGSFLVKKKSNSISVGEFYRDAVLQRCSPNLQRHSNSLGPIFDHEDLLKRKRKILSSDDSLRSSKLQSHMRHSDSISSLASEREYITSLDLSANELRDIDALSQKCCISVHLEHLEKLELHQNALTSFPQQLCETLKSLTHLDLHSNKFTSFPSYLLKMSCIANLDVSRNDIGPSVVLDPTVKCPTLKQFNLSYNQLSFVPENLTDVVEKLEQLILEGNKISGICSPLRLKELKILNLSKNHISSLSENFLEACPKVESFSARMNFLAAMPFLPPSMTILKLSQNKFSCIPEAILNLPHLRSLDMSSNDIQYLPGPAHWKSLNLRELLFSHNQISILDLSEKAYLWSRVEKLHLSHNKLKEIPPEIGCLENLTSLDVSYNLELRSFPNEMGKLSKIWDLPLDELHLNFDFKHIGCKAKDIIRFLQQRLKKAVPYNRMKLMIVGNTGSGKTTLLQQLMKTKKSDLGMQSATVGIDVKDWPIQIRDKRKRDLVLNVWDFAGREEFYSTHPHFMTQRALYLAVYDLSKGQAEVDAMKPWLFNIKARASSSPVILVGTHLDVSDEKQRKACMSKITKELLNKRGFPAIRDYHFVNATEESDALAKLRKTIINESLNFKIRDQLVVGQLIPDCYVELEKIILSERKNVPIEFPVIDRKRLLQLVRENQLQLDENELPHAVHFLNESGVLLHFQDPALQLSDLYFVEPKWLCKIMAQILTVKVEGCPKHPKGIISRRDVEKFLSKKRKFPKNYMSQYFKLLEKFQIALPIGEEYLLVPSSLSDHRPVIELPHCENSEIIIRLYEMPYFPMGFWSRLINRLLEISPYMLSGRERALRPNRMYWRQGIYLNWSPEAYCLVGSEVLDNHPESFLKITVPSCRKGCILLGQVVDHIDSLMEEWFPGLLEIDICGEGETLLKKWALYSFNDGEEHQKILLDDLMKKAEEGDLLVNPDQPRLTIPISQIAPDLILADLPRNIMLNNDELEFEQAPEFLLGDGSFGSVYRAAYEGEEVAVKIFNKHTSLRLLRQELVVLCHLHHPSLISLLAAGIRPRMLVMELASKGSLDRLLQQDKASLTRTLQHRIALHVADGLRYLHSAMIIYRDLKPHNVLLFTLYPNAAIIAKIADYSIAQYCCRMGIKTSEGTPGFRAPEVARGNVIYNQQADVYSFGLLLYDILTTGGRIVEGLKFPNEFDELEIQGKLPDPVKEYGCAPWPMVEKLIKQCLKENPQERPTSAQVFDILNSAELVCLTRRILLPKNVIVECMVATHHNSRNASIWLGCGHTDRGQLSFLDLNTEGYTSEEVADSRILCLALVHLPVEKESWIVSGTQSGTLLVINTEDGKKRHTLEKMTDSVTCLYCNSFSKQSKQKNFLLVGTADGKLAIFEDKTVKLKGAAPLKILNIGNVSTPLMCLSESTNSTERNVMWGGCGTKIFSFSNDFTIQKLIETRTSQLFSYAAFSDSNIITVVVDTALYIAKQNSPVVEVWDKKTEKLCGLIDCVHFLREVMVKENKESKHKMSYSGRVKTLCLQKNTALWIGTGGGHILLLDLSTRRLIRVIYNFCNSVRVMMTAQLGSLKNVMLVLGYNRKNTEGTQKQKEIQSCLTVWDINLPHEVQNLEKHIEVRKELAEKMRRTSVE
Chain of Serine/threonine-protein kinase Nek4 (Homo sapiens) (P51957 whole entry, looked up, the tested form may be a part): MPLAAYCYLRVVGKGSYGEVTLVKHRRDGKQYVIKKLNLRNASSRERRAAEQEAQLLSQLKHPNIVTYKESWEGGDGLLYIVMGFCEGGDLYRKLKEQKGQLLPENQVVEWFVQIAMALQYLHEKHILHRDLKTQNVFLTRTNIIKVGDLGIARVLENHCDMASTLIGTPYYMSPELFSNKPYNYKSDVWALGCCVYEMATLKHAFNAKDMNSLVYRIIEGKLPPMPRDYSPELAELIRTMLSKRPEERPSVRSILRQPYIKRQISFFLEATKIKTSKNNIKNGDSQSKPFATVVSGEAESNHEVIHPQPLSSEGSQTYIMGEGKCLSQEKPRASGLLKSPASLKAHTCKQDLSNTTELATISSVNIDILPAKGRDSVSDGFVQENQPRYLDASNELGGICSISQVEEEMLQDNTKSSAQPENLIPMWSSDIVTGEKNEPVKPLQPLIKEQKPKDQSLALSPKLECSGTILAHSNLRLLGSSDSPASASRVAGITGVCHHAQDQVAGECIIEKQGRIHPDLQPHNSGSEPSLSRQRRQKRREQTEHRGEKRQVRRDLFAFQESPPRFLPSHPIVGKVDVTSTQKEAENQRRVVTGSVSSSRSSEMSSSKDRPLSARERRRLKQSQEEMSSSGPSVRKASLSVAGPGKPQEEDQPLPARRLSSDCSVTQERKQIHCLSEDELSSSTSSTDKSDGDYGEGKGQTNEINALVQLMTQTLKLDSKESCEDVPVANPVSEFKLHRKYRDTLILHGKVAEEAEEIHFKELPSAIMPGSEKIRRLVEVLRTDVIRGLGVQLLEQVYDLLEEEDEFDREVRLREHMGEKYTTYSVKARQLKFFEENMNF

As for `C[C@@H]1CN(c2cc(-c3nn(C)c4ccc(OC5(C)CC5)cc34)ncn2)C[C@H](C)O1` [MLi-2-NC], in test [1], the residual activity was 36%. In addition, the inhibition in test [2] was 13.2%.

Turning to `C[C@@H]1CN(c2cc(-c3n[nH]c4ccc(OC5(C)CC5)cc34)ncn2)C[C@H](C)O1` [MLi-2], the inhibition is -1% in [3]; -4% in [4]; 7.26% in [5]; 0.91% in [6]; 7.75% in test [7]; 8.93% in test [8]. Further, the inhibition in test [9] was 2.54%; in [10], 5.05%; in test [11] it was -2.24%; in test [12], 6.63%; in test [13], -2.3%; in test [14], 6.39%. Further, the inhibition in test [15] is -0.0985%; in [16], -2.73%; in test [17], 4.9%; in [18], -2.27%; in test [19], 7.78%; in test [20] it was 12%. For the same compound, the inhibition in [21] was 6%; in test [22] it was -2%; in [23] it was 20%; in test [24], 23%; in test [25], -2.36%.

One may read the residual activity as the signal under treatment as a percentage of the control signal. The inhibition is the change of the read-out against control, counted positive when it falls.

For the origin of these results see ChEMBL document CHEMBL4507291 (2021).
